Laboratory results from PMC9686985, “Chimeric Peptides Derived from Bovine Lactoferricin and Buforin II: Antifungal Activity against Reference Strains and Clinical Isolates of Candida spp” (Antibiotics, 2022).
In brackets after ≈: the same amount, converted by molar mass. Read-outs that look alike come from different tables or passages of the source. Non-standard residues stand in square brackets, D forms with d. Residues, ends and D or L forms follow the SMILES beside them. Ahx = NCCCCCC(=O)O

Tests used:
[1] = test system: human red blood cells; design: method as in PMID 33369144; conditions: cited from earlier work
[2] = test system: C. albicans 256 HUSI-PUJ; format: cell-based, Candida albicans; conditions: for MFC: 24 h; for MIC: 48 h
Description: (§1) Antifungal susceptibility testing was carried out using the broth microdilution (BMD) method, following the CLSI M27-A3 guidelines with slight modifications. Briefly, cells (0.5–2.5 × 10^3 CFU/mL) were incubated with peptides (200, 100, 50, 25, 12.5, and 6.25 µg/mL) at 37 °C for 48 h. MICs were visualized and densitometry (595 nm, microplate reader, Bio-Rad, ᵢMark^TM) was used to determine the lowest concentration of peptide that caused a significant decrease (MIC/2 or ≥50%) compared with the growth control (cells incubated in absence of peptide) (n = 3). In order to verify that the peptides were able to kill the yeast cells, the plates were also evaluated for minimum fungicidal concentration (MFC). Briefly, aliquots from each well from susceptibility testing assays were transferred to plates containing Sabouraud dextrose agar (SDA), which were then incubated at 37 °C for 24 h. The highest dilution with no growth on the agar plate was considered to be the MFC.

[3] = test system: C. albicans ATCC SC5314; format: cell-based, Candida albicans; conditions: for MFC: ATCC SC5314, 24 h
Description: as §1

[4] = test system: C. albicans SC5314; format: cell-based, Candida albicans; conditions: SC5314, 48 h
Description: (§2) A time-kill kinetic assay was carried out according to the method previously described by Pfaller and coworkers with minor modifications. The peptides (C5, C6, C8, and C9) diluted in RPMI were tested at a range of concentrations: 0 (control), 0.2, 0.5, 1, and 2 times the MIC value for each strain. The isolates were subcultured on SBD, and then an inoculum was adjusted to a 0.5–2.5 × 10^3 CFU/mL in an RPMI 1640 medium. Yeast inoculum (150 uL) was added to a 100-well plate containing serial dilutions of the peptides. The plates were incubated with agitation at 37 °C in a plate reader (Bioscreen C MBR automated turbidometric analyzer, Growth Curves Ltd., Helsinki, Finland), which takes hourly absorbance readings. Moreover, fluconazole MICs were used as a control. The readings were analyzed with Bioscreen software (Growth Curves USA, Piscataway, NJ, USA) and GraphPad Prism 8.0.1 (GraphPad Soft-ware, San Diego, CA, USA). Statistical comparisons were made using an analysis of variance (two-way ANOVA) followed by a Tukey–Kramer post hoc test. P values less than 0.005 were considered significant. […] Moreover, previously determined FLC MICs (data not shown) were used as a control.

[5] = test system: C. albicans 256; format: cell-based, Candida albicans; conditions: 256, 48 h
Description: as §2

[6] = test system: C. glabrata 1875; format: cell-based; conditions: 1875, 48 h
Description: as §1

[7] = test system: C. auris 001; format: cell-based; conditions: 001, 48 h
Description: as §1

[8] = test system: C. auris 537; format: cell-based; conditions: 537, 48 h
Description: as §1

[9] = test system: C. glabrata 1875 CHU-PUJ; format: cell-based
Description: (§3) The in vitro interactions between the peptides (C6, C8, and C9) and the FLC drug were evaluated in a checkerboard assay, as previously described by Cokol et al.. Briefly, each isolate was prepared by picking colonies from an overnight culture in SBD at 37 °C and suspended in a sterile normal saline PBS buffer. The fungal inoculum was adjusted to 0.5 MacFarland and the inoculum was adjusted to 0.5–2.5 × 10^3 CFU/mL. The drug-peptide combinations were formed over a range of concentrations: 0 (control) and 0.06 to 2 times the MIC [51]. The fractional inhibitory concentration index (FICI) was calculated as follows:
(§4) FICI=CML peptide in combination/CMI peptide alone+CML FLC in combination/CMI FLC alone
(§5) The calculated FICI was reported as synergy with values FICI ≤ 0.5, additive FICI > 0.5–1, indifference FICI > 1–4, and antagonism FICI ≥ 4 [52].
(§6) A synergistic effect was considered to be when the effect of the combination exceeded the effects of the individual components. An additive effect was when the effect of the combination was equal to the sum of the effects of the individual components.

[10] = test system: C. auris 001 HUSI-PUJ; format: cell-based
Description: as §3, §4, §5, §6

[11] = test system: C. glabrata ATCC 2001; format: cell-based
Description: as §3, §4, §5, §6

[12] = test system: C. auris 537 HUSI-PUJ; format: cell-based
Description: as §3, §4, §5, §6

[13] = test system: C. albicans 256 HUSI-PUJ; format: cell-based, Candida albicans; conditions: 256 HUSI-PUJ
Description: as §3, §4, §5, §6

[14] = test system: E. coli; conditions: reported; cited from earlier work
Text: LfcinB (20–25): RRWQWR is the shortest sequence derived from LfcinB with antibacterial, antifungal, and anticancer activity. In similar way, Buforin II (BFII) is an antimicrobial peptide with activity against Gram-positive and Gram-negative bacteria as well as fungi. Palindromic sequences have been designed from the 4-residue motif (RLLR) of Buforin II, and their antibacterial activity has been evaluated against Gram-negative and Gram-positive strains. The palindrome [RLLR]5: […] was reported to have an MIC of 0.7 µM against E. coli. Chimeras containing the minimum motif RRWQW ...

[15] = checkerboard run with C6, unit from footnote of Table 4

Compound: CC(C)C[C@H](NC(=O)[C@H](CC(C)C)NC(=O)[C@H](CCCCN)NC(=O)[C@H](CCCCN)NC(=O)[C@H](CC(C)C)NC(=O)[C@H](CC(C)C)NC(=O)[C@H](CCCCN)NC(=O)CCCCCNC(=O)[C@H](CCCNC(=N)N)NC(=O)[C@H](Cc1c[nH]c2ccccc12)NC(=O)[C@H](CCC(N)=O)NC(=O)[C@H](Cc1c[nH]c2ccccc12)NC(=O)[C@H](CCCNC(=N)N)NC(=O)[C@@H](N)CCCNC(=N)N)C(=O)N[C@@H](CCCCN)C(N)=O [C5] (H-RRWQWR[Ahx]KLLKKLLK-NH2)
- Hemolytic effect [1]: 2–4%
- MFC ([2]; 256 HUSI-PUJ): 97 µM (≈ 200 µg/mL)
- MFC [3]: 97 µM (≈ 200 µg/mL)
- Inhibition of growth [4]: more than 90%
- Inhibition of growth [5]: more than 90%

Compound: CC(C)C[C@H](NC(=O)[C@H](CC(C)C)NC(=O)[C@H](CCCNC(=N)N)NC(=O)[C@H](CCCNC(=N)N)NC(=O)[C@H](CC(C)C)NC(=O)[C@H](CC(C)C)NC(=O)[C@H](CCCNC(=N)N)NC(=O)CCCCCNC(=O)[C@H](CCCCN)NC(=O)[C@H](Cc1c[nH]c2ccccc12)NC(=O)[C@H](CCC(N)=O)NC(=O)[C@H](Cc1c[nH]c2ccccc12)NC(=O)[C@H](CCCCN)NC(=O)[C@@H](N)CCCCN)C(=O)N[C@@H](CCCNC(=N)N)C(N)=O [C6] (H-KKWQWK[Ahx]RLLRRLLR-NH2)
- MIC [6]: 96 µM (≈ 201 µg/mL)
- MIC [7]: 96 µM (≈ 201 µg/mL)
- MIC [8]: 96 µM (≈ 201 µg/mL)
- Hemolytic effect [1]: 2–4%
- MICa: MIC of the chimeric peptide alone ([9]; 1875 CHU-PUJ): 400 µg/mL
- MICa: MIC of the chimeric peptide alone ([10]; 001 HUSI-PUJ): 400 µg/mL
- MICa: MIC of the chimeric peptide alone ([11]; ATCC 2001): 100 µg/mL
- MICa: MIC of the chimeric peptide alone ([12]; 537 HUSI-PUJ): 400 µg/mL
- MFC ([2]; 256 HUSI-PUJ): 48 µM (≈ 100 µg/mL)
- MIC ([2]; 256 HUSI-PUJ): 24 µM
- MFC [3]: 48 µM (≈ 100 µg/mL)
- MIC ([3]; ATCC SC5314, 48 h): 24 µM
- Inhibition of growth [4]: more than 90%
- Inhibition of growth [5]: more than 90%
- MICa: MIC of the chimeric peptide alone [13]: 100 µg/mL

Compound: OC(Cn1cncn1)(Cn1cncn1)c1ccc(F)cc1F [FLC, fluconazole, reference compound]
- MICb: MIC of fluconazole alone [9, 15]: 4 µg/mL
- MICb: MIC of fluconazole alone [10, 15]: 32 µg/mL
- MICb: MIC of fluconazole alone [11, 15]: 0.3 µg/mL
- MICb: MIC of fluconazole alone [12, 15]: 64 µg/mL
- MIC ([2]; FLC-resistant clinical isolate, broth microdilution CLSI M27-A3, 37 °C, ≥50% decrease vs growth control, n = 3): 64 µg/mL
- MIC ([3]; FLC-sensitive reference strain, broth microdilution CLSI M27-A3, 37 °C, 48 h, ≥50% decrease vs growth control, n = 3): 1 µg/mL

Compound: RLLRRLLRRLLRRLLRRLLR [[RLLR]5, palindrome designed from the RLLR motif of Buforin II]
- MIC [14]: 0.7 µM
